These results are taken from patent US20130347134A1, “TRANSGENIC VON WILLEBRAND FACTOR ANIMALS AND USES THEREOF” (priority 2012, published 2013).

“Also recorded” adds a separate entry of the source. A value given as a limit tells only on which side of the number the result lay.

One experiment has as its system thrombus. The settings on record: maximal effective dose 50 mg/kg the day before and 2 hours prior; cited from earlier work.
Experiment [1] deals with ADP receptor on murine platelets (Mus musculus, UniProt Q9CPV9). The conditions noted are these: FIG. 46A. The protocol: (§1) Tail bleeding assay. […] For studies involving PLAVIX, animals received a 50 mg/kg oral dose of the drug the day before and 2 hours prior to the administration of human platelets.
Experiment [2] has as its system human platelets. In words: Ex vivo platelet adhesion, parallel-plate flow chamber, human whole blood over surface-immobilized VWF or VWF-A1, 1600 s^-1. The class given is cell-based. The settings on record: for translocation velocities of human platelets: on plasma VWF, mean±s.e.m, n=4. The protocol:
Ex vivo platelet adhesion studies. Experiments were performed in a parallel-plate flow chamber as previously described (Offermanns, S., et al., 2006). For studies involving plasma VWF, a polyclonal anti-VWF antibody (Dako) was absorbed overnight (4° C.) to a six well tissue culture plate. Subsequently, the plate was washed and non-specific interactions blocked by the addition of TBS containing 3% BSA, pH 7.4 (1 hour, 37° C.). Human or murine plasma obtained from heparinized whole blood was added and the plates placed at 37° C. for an additional 2 hours. Generation, purification, and surface-immobilization of recombinant VWF-A1 proteins was performed as previously described (Doggett, T. A. et al., 2002). Both human and murine VWF-A1 constructs consist of amino acid residues 1238 to 1471, with a single intra-disulfide bond formed between residues 1272 and 1458 and were generated in bacteria. Citrated whole blood (150 μl) collected via cardiac puncture from anesthetized homozygous VWF^1326R>H or WT mice or from venopuncture from human volunteers was perfused over the immobilized substrates at a wall shear rate of 1600 s^−1 for 4 minutes, followed by washing with Tyrode's buffer under the identical flow conditions. The number of platelets attached per unit area (0.07 mm^2) and translocation velocities were determined by off-line analysis (Image-Pro Plus, Media Cybernetics). For GPIb α inhibition studies, the function-blocking mAb 6D1 (20 μg/ml) or mAb SZ2 (20 μg/ml; Beckman Coulter, Brea, Calif.) was added to anticoagulated human blood for 30 minutes prior to use. Experiments were performed in triplicate on two separate days. An ELISA was used to ensure equivalent coating concentration of plasma and recombinant proteins (Denis, C. et al., 1998).

Experiment [3] deals with human platelets. In words: Tail bleeding assay, human platelet-induced hemostasis in homozygous VWF^1326R>H mice. The class given is in vivo, mouse. The settings on record: for human platelet-induced hemostatic clot formation: drug given to homozygous VWF^1326R>H mice receiving human platelets. The protocol:
as §1
This assay provides an indirect measure of the ability of platelets and VWF to support hemostasis by interacting with the injured vessel wall. It also indirectly determines the function of multiple receptors and ligands on platelets that are required to form a hemostatic plug. […] It is performed by immersing the severed tip (10 mm) of the animal's tail in isotonic saline at 37° C. and monitoring the length of time required for bleeding to cease. Homozygous mutant mice will be infused with an equal volume of either saline or purified human platelets. Platelet specific antibodies or drugs will be administered as described above and their ability to prolong bleeding time evaluated.

The target of a further experiment is T1, αIIb β3 (Homo sapiens, UniProt P05106+P08514).
T1 construct: endogenous in cells; host or cells: platelets of treated patients
The settings on record: intravenous bolus 0.25 mg/kg, then 0.125 μg/kg/min; cited from earlier work.

The target of another experiment is murine αIIb β3 (Mus musculus, UniProt O54890+Q9QUM0). The conditions noted are these: cited from earlier work.
Experiment [4] concerns human platelets. In words: Parallel plate flow system, human platelets over immobilized plasma VWF of VWF HA1 mice. The class given is cell-based.
Another experiment has as its system mouse platelets. In words: Parallel plate flow system, WT mouse blood over immobilized plasma VWF of VWF HA1 mice. Format: cell-based. The text has this:
WT mouse blood was then infused over the immobilized substrate.

Experiment [5] deals with murine platelet rich plasma. Kind of experiment: Ristocetin-induced platelet aggregation assay (RIPA), murine platelet rich plasma. Format: cell-based, mouse. The protocol: In Ristocetin-induced platelet aggregation assays (RIPA), platelet GPIb a binding to wild type human VWF or mouse VWF was analyzed in the absence or presence of ristocetin as described previously (Inbal, et al., 1993). In this method, platelet rich plasma (PRP) is placed in a clear cuvette containing a stir bar and inserted into the aggregometer. Platelet aggregation is induced by the addition of ristocetin. […] In fact, only at concentrations of 2.5 mg/ml was there any evidence of murine platelet aggregation observed (about 30%, FIG. 10C).

Experiment [6] deals with human platelets. In words: Optical aggregometry, human platelets resuspended in platelet poor plasma of VWF^R1326H or VWF^HA1 mice. The class given is cell-based. The protocol: Although the R1326H mutation in murine VWF can support human platelet mediated hemostasis and thrombosis, there still exists a major difference between the human and mouse A1 domains. Specifically, only the human form can be activated to bind to GPIb alpha on human platelets. Ristocetin is an antibiotic that was taken off the market due to its ability to cause von Willebrand factor to bind the platelet receptor GPIb alpha, so when ristocetin is added to normal blood, it causes platelet clumping. […] Thus, murine VWF bearing the majority of the human A1 domain functions in manner more closely to that in humans, making it a better biological platform for studying human platelet function and the effects of antiplatelet agents for use in human beings.

ADP receptor on murine platelets, sequence (Q9CPV9 whole entry): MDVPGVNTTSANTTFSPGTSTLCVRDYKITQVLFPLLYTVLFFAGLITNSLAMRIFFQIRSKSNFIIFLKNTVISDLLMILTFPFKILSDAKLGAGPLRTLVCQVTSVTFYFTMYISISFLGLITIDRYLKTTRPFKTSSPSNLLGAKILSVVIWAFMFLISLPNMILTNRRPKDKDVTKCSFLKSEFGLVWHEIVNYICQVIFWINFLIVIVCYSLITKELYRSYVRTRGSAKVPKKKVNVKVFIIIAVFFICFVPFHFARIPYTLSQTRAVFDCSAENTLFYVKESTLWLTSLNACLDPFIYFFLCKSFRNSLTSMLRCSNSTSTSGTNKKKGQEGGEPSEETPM
murine αIIb β3, sequence (Q9QUM0 32-1033): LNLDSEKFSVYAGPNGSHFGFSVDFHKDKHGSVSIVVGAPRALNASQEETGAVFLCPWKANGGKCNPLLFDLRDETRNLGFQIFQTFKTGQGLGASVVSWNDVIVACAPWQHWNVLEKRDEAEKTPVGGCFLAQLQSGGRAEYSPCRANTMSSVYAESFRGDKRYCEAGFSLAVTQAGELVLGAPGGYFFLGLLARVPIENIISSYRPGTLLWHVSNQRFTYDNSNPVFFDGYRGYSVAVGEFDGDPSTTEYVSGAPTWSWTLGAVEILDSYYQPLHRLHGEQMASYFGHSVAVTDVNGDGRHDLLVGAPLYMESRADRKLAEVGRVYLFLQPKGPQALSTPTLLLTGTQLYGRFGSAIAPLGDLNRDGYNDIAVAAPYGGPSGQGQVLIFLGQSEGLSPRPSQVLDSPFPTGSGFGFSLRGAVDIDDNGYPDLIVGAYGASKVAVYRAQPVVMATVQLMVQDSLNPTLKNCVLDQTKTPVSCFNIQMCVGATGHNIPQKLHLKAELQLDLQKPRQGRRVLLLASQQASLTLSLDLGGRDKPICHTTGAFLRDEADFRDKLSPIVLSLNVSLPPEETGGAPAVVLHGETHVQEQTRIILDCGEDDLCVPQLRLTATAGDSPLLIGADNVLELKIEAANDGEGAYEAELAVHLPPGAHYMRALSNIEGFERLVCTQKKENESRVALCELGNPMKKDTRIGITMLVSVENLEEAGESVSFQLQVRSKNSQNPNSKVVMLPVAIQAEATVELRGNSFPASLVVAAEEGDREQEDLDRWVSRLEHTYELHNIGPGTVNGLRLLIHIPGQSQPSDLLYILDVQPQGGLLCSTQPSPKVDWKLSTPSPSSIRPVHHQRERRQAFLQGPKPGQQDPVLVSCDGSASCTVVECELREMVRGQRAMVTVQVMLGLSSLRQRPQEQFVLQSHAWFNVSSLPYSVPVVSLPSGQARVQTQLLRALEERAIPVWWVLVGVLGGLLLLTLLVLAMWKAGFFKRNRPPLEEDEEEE
murine αIIb β3, sequence (O54890 26-787): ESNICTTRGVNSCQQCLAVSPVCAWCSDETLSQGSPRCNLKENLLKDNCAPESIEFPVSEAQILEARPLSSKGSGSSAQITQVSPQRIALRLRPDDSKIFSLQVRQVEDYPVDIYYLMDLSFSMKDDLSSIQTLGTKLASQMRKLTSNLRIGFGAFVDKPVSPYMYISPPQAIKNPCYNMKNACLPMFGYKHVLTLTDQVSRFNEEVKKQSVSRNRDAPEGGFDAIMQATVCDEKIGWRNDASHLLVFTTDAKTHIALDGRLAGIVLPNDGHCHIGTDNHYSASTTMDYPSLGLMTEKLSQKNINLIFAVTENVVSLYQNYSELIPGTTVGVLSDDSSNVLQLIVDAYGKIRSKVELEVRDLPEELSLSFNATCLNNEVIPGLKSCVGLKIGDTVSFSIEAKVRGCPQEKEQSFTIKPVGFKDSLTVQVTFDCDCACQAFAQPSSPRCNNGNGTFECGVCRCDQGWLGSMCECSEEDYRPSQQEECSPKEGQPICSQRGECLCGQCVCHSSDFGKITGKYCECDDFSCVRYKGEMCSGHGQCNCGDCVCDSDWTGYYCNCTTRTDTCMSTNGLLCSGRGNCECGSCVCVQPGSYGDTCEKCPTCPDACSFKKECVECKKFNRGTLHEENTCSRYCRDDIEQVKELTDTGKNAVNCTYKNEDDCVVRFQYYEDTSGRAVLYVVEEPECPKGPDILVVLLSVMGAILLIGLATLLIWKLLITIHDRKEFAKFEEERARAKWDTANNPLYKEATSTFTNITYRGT

With `COC(=O)[C@H](c1ccccc1Cl)N1CCc2sccc2C1` [clopidogrel], the “thrombus size and formation in mice” value in the experiment with thrombus was “reduce thrombus size and delay its formation”. In addition, the “function of the ADP receptor on murine platelets” value in experiment [1] was “can also block the function of the ADP receptor on murine platelets”.

As for “VWF^1326R>H: full-length murine plasma VWF containing the 1326R>H mutation”, the “translocation velocities of human platelets” value in the experiment on human platelets [2] came out at 3.5±0.1 μm/sec. In addition, in the experiment on human platelets [2] (shear rate 1600 s^−1), the “human platelet accumulation on the surface-immobilized protein” value is recorded as “bound human platelets at levels comparable with its human counterpart”.

Turning to abciximab, the “human platelet-induced hemostatic clot formation” value in the experiment on human platelets [3] is recorded as “completely disrupted”. Also, the “human platelet-induced hemostatic clot formation” value in the experiment with human platelets [3] (listed as ReoPro) was “prevented the formation of a hemostatic plug”. In the experiment with human platelets [3] (given 5 minutes after infusion of human platelets, bolus 0.25 mg/kg then 0.125 μg/kg/min), this compound registered a mean bleeding time of 579 s. Further, in the experiment with αIIb β3, the “duration of disruption of platelet function” value was 24 to 36 h and the “αIIb β3 occupancy” value was > 80%. Also, the “binding or disruption of function of murine αIIb β3” value with murine αIIb β3 is reported as “does not bind or disrupt the function of murine αIIb β3”.

“murine plasma VWF: plasma VWF of wild type mice”: the “human platelet deposition as compared with same-species controls” value in the experiment with human platelets [2] (human whole blood, shear rate 1600 s^−1) is on record as 10%.

As for “native human plasma VWF: human plasma VWF”, in the experiment on human platelets [2], the “translocation velocities of human platelets” value worked out at 3.2±0.1 μm/sec.

Take “plasma VWF containing the human A1 domain: mouse VWF containing the majority of the human A1 domain (amino acids 1240P to 1481G)”: the “human platelet interactions with the immobilized protein” value in the experiment with human platelets [4] is on record as “could interact at levels observed for human plasma VWF”. Besides, the “mouse platelet interactions with the immobilized protein” value in the experiment on mouse platelets was “could not support any significant interactions”.

Regarding ristocetin, in [5] (about 1.0 mg/ml), the murine platelet aggregation result was “no such effect; also recorded: had no effect”. Besides, the human platelet aggregation entry is “cause human platelet aggregation comparable to its human counterpart” with human platelets [6] (plasma from VWF^HA1 mice) and “such was not the case” with human platelets [6] (plasma from VWF^R1326H animals).

As to thrombin, in [5] (incubation of murine PRP with thrombin), the platelet aggregation is > 90%.
